{"source": "the kinase profiling compilation of Christmann-Franck et al. (2016)", "test_in_all_cases": "Caliper, Mobility shift assay off-chip", "key": {"EPHB1 (human)": {"target": "EPHB1 (human) (UniProt P54762)"}, "EPHA5 (human)": {"target": "EPHA5 (human) (UniProt P54756)", "sequence (P54756 whole entry, looked up)": "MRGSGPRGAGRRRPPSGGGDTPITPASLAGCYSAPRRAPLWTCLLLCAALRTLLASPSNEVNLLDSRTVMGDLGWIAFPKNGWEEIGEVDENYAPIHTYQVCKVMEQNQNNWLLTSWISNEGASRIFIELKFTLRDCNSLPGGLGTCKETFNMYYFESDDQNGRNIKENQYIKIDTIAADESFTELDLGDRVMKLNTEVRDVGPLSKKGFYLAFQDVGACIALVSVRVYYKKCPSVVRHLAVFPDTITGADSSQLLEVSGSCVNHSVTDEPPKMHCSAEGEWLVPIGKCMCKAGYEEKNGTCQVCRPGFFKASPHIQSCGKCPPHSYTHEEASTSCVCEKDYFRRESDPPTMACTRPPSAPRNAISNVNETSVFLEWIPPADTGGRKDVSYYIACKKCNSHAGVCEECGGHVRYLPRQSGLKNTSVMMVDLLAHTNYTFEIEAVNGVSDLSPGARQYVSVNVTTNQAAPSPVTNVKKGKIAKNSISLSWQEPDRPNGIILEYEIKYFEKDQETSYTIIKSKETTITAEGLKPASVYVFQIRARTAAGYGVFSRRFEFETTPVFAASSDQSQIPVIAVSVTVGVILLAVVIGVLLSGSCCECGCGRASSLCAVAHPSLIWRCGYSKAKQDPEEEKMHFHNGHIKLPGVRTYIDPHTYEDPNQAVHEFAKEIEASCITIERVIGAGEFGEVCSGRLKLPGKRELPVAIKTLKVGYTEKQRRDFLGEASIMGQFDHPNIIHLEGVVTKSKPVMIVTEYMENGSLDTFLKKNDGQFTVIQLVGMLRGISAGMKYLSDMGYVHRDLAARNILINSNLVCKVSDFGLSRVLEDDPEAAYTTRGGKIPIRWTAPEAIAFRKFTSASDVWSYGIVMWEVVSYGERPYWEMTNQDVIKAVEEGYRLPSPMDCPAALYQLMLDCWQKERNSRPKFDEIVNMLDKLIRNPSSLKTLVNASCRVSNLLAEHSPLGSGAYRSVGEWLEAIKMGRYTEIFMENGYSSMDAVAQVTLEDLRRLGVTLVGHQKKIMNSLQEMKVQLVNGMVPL"}, "WNK3 (human)": {"target": "WNK3 (human) (UniProt Q9BYP7)", "sequence (Q9BYP7 whole entry, looked up)": "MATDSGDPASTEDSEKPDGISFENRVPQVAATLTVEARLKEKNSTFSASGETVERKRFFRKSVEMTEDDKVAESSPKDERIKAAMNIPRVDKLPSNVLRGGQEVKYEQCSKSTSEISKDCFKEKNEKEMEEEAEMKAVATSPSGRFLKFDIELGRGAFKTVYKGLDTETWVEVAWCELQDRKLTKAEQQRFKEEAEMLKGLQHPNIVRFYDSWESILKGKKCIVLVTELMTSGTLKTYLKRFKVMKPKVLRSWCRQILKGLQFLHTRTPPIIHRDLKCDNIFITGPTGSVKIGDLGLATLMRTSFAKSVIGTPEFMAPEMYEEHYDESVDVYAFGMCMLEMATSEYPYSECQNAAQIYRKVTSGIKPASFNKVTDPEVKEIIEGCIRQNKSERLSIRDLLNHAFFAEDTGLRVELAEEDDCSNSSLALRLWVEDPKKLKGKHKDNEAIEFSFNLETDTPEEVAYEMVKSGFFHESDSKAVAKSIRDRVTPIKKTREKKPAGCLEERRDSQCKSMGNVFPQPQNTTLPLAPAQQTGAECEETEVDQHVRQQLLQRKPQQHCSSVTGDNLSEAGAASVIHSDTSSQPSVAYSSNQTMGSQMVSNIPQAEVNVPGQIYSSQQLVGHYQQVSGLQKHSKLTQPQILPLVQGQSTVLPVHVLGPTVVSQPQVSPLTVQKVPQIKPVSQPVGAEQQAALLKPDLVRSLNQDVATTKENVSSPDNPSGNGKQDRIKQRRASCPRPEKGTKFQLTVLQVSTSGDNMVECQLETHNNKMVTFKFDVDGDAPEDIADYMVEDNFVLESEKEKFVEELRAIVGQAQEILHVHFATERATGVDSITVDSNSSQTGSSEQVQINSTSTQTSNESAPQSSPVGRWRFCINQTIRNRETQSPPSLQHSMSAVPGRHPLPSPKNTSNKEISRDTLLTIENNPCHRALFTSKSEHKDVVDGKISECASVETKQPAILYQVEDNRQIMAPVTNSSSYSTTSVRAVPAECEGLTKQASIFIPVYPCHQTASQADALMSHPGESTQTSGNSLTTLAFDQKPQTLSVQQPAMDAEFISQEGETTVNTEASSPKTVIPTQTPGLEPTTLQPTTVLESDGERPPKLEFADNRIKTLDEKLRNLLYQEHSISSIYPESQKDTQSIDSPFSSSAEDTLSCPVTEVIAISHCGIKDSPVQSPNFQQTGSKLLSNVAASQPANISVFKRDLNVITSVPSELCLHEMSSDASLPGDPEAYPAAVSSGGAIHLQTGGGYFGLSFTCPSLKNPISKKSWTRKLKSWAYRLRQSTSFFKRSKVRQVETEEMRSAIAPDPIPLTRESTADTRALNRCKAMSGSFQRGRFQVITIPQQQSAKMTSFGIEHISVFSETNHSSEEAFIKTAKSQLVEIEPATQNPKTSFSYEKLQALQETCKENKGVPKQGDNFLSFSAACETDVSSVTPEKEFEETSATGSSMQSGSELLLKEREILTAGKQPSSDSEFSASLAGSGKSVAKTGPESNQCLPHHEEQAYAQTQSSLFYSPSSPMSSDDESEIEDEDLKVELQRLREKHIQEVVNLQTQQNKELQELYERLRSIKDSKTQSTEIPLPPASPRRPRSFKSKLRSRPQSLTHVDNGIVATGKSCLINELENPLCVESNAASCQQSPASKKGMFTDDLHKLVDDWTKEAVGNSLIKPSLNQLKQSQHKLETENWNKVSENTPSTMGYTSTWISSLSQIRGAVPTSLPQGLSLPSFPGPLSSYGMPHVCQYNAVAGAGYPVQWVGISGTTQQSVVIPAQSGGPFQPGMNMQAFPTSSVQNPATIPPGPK"}, "LATS2 (human)": {"target": "LATS2 (human) (UniProt Q9NRM7)"}, "CIT (human)": {"target": "CIT (human) (UniProt O14578)"}, "PRKD2 (human)": {"target": "PRKD2 (human) (UniProt Q9BZL6)"}, "TSSK2 (human)": {"target": "TSSK2 (human) (UniProt Q96PF2)", "sequence (Q96PF2 whole entry, looked up)": "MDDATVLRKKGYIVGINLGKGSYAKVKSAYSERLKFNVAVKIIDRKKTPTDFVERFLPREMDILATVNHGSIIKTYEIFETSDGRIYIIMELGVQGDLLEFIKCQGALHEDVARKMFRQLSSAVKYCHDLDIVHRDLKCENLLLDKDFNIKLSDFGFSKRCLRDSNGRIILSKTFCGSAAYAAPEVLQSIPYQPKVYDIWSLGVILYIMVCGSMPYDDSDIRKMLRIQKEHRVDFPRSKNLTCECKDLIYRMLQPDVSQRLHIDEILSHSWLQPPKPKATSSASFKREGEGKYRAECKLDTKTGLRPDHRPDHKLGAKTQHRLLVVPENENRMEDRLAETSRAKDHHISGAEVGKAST"}, "RPS6KB1 (human)": {"target": "RPS6KB1 (human) (UniProt P23443)"}, "ERBB2 (human)": {"target": "ERBB2 (human) (UniProt P04626)", "settings": "compound 0.02 µM"}, "MAPK8 (human)": {"target": "MAPK8 (human) (UniProt P45983)"}, "CAMK2G (human)": {"target": "CAMK2G (human) (UniProt Q13555)"}, "GSK3B (human)": {"target": "GSK3B (human) (UniProt P49841)"}, "IKBKE (human)": {"target": "IKBKE (human) (UniProt Q14164)"}, "STK3 (human)": {"target": "STK3 (human) (UniProt Q13188)"}, "TEC (human)": {"target": "TEC (human) (UniProt P42680)"}, "SYK (human)": {"target": "SYK (human) (UniProt P43405)"}, "WNK2 (human)": {"target": "WNK2 (human) (UniProt Q9Y3S1)"}, "CDK2 (human)": {"target": "CDK2 (human) (UniProt P24941)"}, "MAPK7 (human)": {"target": "MAPK7 (human) (UniProt Q13164)", "sequence (Q13164 whole entry, looked up)": "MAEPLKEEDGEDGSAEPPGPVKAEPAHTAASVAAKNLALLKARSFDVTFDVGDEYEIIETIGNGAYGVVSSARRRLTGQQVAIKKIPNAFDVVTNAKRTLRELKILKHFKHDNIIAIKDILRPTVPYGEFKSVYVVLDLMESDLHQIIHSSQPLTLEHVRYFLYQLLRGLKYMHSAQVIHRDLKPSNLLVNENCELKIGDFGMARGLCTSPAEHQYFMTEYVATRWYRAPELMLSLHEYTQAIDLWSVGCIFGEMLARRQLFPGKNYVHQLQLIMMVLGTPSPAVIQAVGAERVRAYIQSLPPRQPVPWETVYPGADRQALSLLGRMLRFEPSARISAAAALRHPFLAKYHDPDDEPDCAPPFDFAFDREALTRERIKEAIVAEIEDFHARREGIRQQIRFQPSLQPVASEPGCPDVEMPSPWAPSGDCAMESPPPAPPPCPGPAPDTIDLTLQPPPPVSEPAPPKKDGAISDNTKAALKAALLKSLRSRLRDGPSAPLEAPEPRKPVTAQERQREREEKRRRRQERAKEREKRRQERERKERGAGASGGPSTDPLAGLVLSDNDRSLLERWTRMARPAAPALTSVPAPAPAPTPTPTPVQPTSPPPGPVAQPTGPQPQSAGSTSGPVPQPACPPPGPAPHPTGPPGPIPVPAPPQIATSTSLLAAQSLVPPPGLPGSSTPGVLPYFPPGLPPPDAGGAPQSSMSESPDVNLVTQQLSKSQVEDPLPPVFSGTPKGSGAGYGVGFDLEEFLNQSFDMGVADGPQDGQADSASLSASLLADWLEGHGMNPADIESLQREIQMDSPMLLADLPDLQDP"}, "PRKD1 (human)": {"target": "PRKD1 (human) (UniProt Q15139)"}, "MAPKAPK5 (human)": {"target": "MAPKAPK5 (human) (UniProt Q8IW41)"}, "MAPK14 (human)": {"target": "MAPK14 (human) (UniProt Q16539)"}, "PASK (human)": {"target": "PASK (human) (UniProt Q96RG2)"}, "MAPK11 (human)": {"target": "MAPK11 (human) (UniProt Q15759)"}, "IRAK1 (human)": {"target": "IRAK1 (human) (UniProt P51617)"}, "TNK2 (human)": {"target": "TNK2 (human) (UniProt Q07912)"}, "PAK6 (human)": {"target": "PAK6 (human) (UniProt Q9NQU5)", "sequence (Q9NQU5 whole entry, looked up)": "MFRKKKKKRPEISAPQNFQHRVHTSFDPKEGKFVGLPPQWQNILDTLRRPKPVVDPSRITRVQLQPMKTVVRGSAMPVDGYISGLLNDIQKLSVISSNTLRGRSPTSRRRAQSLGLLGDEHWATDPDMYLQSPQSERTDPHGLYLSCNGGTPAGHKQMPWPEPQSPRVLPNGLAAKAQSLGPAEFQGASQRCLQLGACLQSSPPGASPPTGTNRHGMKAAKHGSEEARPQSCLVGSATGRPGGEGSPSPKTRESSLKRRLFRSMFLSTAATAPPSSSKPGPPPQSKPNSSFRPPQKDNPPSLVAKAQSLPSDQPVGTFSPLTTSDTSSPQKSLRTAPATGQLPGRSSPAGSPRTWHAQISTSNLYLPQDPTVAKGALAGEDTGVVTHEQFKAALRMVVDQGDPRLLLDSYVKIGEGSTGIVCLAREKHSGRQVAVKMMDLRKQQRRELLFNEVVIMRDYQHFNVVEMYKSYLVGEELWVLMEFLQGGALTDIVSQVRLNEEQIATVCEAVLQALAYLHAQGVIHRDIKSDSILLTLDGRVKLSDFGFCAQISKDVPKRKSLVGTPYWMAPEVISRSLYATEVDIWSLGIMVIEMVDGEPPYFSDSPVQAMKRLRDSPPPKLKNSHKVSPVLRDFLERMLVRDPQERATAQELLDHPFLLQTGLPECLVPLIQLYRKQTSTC"}, "CAMK1 (human)": {"target": "CAMK1 (human) (UniProt Q14012)"}, "DYRK1B (human)": {"target": "DYRK1B (human) (UniProt Q9Y463)"}, "SRC (human)": {"target": "SRC (human) (UniProt P12931)"}, "IGF1R (human)": {"target": "IGF1R (human) (UniProt P08069)"}, "FLT3 (human)": {"target": "FLT3 (human) (UniProt P36888)"}, "MAPK9 (human)": {"target": "MAPK9 (human) (UniProt P45984)"}, "PIM2 (human)": {"target": "PIM2 (human) (UniProt Q9P1W9)", "sequence (Q9P1W9 whole entry, looked up)": "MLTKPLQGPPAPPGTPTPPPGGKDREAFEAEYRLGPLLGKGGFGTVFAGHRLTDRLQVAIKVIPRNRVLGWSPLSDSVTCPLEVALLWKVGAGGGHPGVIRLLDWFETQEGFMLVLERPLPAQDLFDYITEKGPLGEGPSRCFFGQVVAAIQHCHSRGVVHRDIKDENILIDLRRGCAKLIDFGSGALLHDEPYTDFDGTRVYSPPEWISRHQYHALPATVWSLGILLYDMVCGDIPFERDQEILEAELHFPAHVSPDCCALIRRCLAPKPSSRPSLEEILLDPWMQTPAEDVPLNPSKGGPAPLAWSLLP"}}, "note": "“And” between values parts separate entries of the source, which are not always exact repeats. Identical values can stand only once."}
{"smiles": "COc1cc2c(Oc3ccc4[nH]c(C)cc4c3F)ncnc2cc1OCCCN1CCCC1", "values": [{"measurement": "inhibition", "setting": "EPHB1 (human); compound 0.02 µM", "result": -7.8, "unit": "%"}, {"measurement": "inhibition", "setting": "EPHB1 (human); compound 0.2 µM", "result": -0.3, "unit": "%"}, {"measurement": "inhibition", "setting": "EPHA5 (human); compound 0.02 µM", "result": -0.9, "unit": "%"}, {"measurement": "inhibition", "setting": "EPHA5 (human); compound 0.2 µM", "result": 7.6, "unit": "%"}, {"measurement": "inhibition", "setting": "WNK3 (human); compound 0.02 µM", "result": 0.8, "unit": "%"}, {"measurement": "inhibition", "setting": "WNK3 (human); compound 0.2 µM", "result": -1.1, "unit": "%"}, {"measurement": "inhibition", "setting": "LATS2 (human); compound 0.02 µM", "result": -7.6, "unit": "%"}, {"measurement": "inhibition", "setting": "LATS2 (human); compound 0.2 µM", "result": -0.9, "unit": "%"}, {"measurement": "inhibition", "setting": "CIT (human); compound 0.02 µM", "result": -3, "unit": "%"}, {"measurement": "inhibition", "setting": "CIT (human); compound 0.2 µM", "result": -1.6, "unit": "%"}, {"measurement": "inhibition", "setting": "PRKD2 (human); compound 0.02 µM", "result": -0.3, "unit": "%"}, {"measurement": "inhibition", "setting": "PRKD2 (human); compound 0.2 µM", "result": -1.5, "unit": "%"}, {"measurement": "inhibition", "setting": "TSSK2 (human); compound 0.02 µM", "result": -4.1, "unit": "%"}, {"measurement": "inhibition", "setting": "TSSK2 (human); compound 0.2 µM", "result": -3.4, "unit": "%"}, {"measurement": "inhibition", "setting": "RPS6KB1 (human); compound 0.02 µM", "result": 8.1, "unit": "%"}, {"measurement": "inhibition", "setting": "RPS6KB1 (human); compound 0.2 µM", "result": 8.6, "unit": "%"}, {"measurement": "inhibition", "setting": "ERBB2 (human)", "result": 3.9, "unit": "%"}, {"measurement": "inhibition", "setting": "MAPK8 (human); compound 0.02 µM", "result": -2.8, "unit": "%"}, {"measurement": "inhibition", "setting": "MAPK8 (human); compound 0.2 µM", "result": -2.5, "unit": "%"}, {"measurement": "inhibition", "setting": "CAMK2G (human); compound 0.02 µM", "result": 0.2, "unit": "%"}, {"measurement": "inhibition", "setting": "CAMK2G (human); compound 0.2 µM", "result": 1.5, "unit": "%"}, {"measurement": "inhibition", "setting": "GSK3B (human); compound 0.02 µM", "result": 0.7, "unit": "%"}, {"measurement": "inhibition", "setting": "GSK3B (human); compound 0.2 µM", "result": 0.8, "unit": "%"}, {"measurement": "inhibition", "setting": "IKBKE (human); compound 0.02 µM", "result": -6.2, "unit": "%"}, {"measurement": "inhibition", "setting": "IKBKE (human); compound 0.2 µM", "result": -5.1, "unit": "%"}, {"measurement": "inhibition", "setting": "STK3 (human); compound 0.02 µM", "result": -2.4, "unit": "%"}, {"measurement": "inhibition", "setting": "STK3 (human); compound 0.2 µM", "result": -3, "unit": "%"}, {"measurement": "inhibition", "setting": "TEC (human); compound 0.02 µM", "result": 4.5, "unit": "%"}, {"measurement": "inhibition", "setting": "TEC (human); compound 0.2 µM", "result": 5.3, "unit": "%"}, {"measurement": "inhibition", "setting": "SYK (human); compound 0.02 µM", "result": -4.7, "unit": "%"}, {"measurement": "inhibition", "setting": "SYK (human); compound 0.2 µM", "result": -3.5, "unit": "%"}, {"measurement": "inhibition", "setting": "WNK2 (human); compound 0.02 µM", "result": 3.8, "unit": "%"}, {"measurement": "inhibition", "setting": "WNK2 (human); compound 0.2 µM", "result": 2.8, "unit": "%"}, {"measurement": "inhibition", "setting": "CDK2 (human); compound 0.02 µM", "result": "1% and -0.2%"}, {"measurement": "inhibition", "setting": "CDK2 (human); compound 0.2 µM", "result": "-3% and -3.9%"}, {"measurement": "inhibition", "setting": "MAPK7 (human); compound 0.02 µM", "result": -8.6, "unit": "%"}, {"measurement": "inhibition", "setting": "MAPK7 (human); compound 0.2 µM", "result": -6.2, "unit": "%"}, {"measurement": "inhibition", "setting": "PRKD1 (human); compound 0.02 µM", "result": -1.3, "unit": "%"}, {"measurement": "inhibition", "setting": "PRKD1 (human); compound 0.2 µM", "result": -2.2, "unit": "%"}, {"measurement": "inhibition", "setting": "MAPKAPK5 (human); compound 0.02 µM", "result": 2, "unit": "%"}, {"measurement": "inhibition", "setting": "MAPKAPK5 (human); compound 0.2 µM", "result": 0.1, "unit": "%"}, {"measurement": "inhibition", "setting": "MAPK14 (human); compound 0.02 µM", "result": -4.9, "unit": "%"}, {"measurement": "inhibition", "setting": "MAPK14 (human); compound 0.2 µM", "result": -4.9, "unit": "%"}, {"measurement": "inhibition", "setting": "PASK (human); compound 0.02 µM", "result": -4.3, "unit": "%"}, {"measurement": "inhibition", "setting": "PASK (human); compound 0.2 µM", "result": 0.3, "unit": "%"}, {"measurement": "inhibition", "setting": "MAPK11 (human); compound 0.02 µM", "result": -2.6, "unit": "%"}, {"measurement": "inhibition", "setting": "MAPK11 (human); compound 0.2 µM", "result": -3.5, "unit": "%"}, {"measurement": "inhibition", "setting": "IRAK1 (human); compound 0.02 µM", "result": -19.1, "unit": "%"}, {"measurement": "inhibition", "setting": "IRAK1 (human); compound 0.2 µM", "result": -7.5, "unit": "%"}, {"measurement": "inhibition", "setting": "TNK2 (human); compound 0.02 µM", "result": -6.7, "unit": "%"}, {"measurement": "inhibition", "setting": "TNK2 (human); compound 0.2 µM", "result": -5.4, "unit": "%"}, {"measurement": "inhibition", "setting": "PAK6 (human); compound 0.02 µM", "result": -2.2, "unit": "%"}, {"measurement": "inhibition", "setting": "PAK6 (human); compound 0.2 µM", "result": -4.9, "unit": "%"}, {"measurement": "inhibition", "setting": "CAMK1 (human); compound 0.02 µM", "result": -3.1, "unit": "%"}, {"measurement": "inhibition", "setting": "CAMK1 (human); compound 0.2 µM", "result": -3.1, "unit": "%"}, {"measurement": "inhibition", "setting": "DYRK1B (human); compound 0.02 µM", "result": 6.7, "unit": "%"}, {"measurement": "inhibition", "setting": "DYRK1B (human); compound 0.2 µM", "result": -1.1, "unit": "%"}, {"measurement": "Ki", "setting": "SRC (human)", "result": 83.5, "unit": "nM"}, {"measurement": "inhibition", "setting": "SRC (human); compound 0.2 µM", "result": 58.1, "unit": "%"}, {"measurement": "inhibition", "setting": "IGF1R (human); compound 0.02 µM", "result": 1.4, "unit": "%"}, {"measurement": "inhibition", "setting": "IGF1R (human); compound 0.2 µM", "result": -1.5, "unit": "%"}, {"measurement": "inhibition", "setting": "FLT3 (human); compound 0.02 µM", "result": 10, "unit": "%"}, {"measurement": "inhibition", "setting": "FLT3 (human); compound 0.2 µM", "result": 9.8, "unit": "%"}, {"measurement": "inhibition", "setting": "MAPK9 (human); compound 0.02 µM", "result": -9.4, "unit": "%"}, {"measurement": "inhibition", "setting": "MAPK9 (human); compound 0.2 µM", "result": -7.7, "unit": "%"}, {"measurement": "inhibition", "setting": "PIM2 (human); compound 0.02 µM", "result": 6.1, "unit": "%"}, {"measurement": "inhibition", "setting": "PIM2 (human); compound 0.2 µM", "result": 8.8, "unit": "%"}]}
